{"source": "patent US11306078B2", "about": "“Piperidine CXCR7 receptor modulators” (IDORSIA PHARMACEUTICALS LTD., priority 2016, dated 2022)", "molecular_target": "human chemokine receptor CXCR7 (Homo sapiens (Human), UniProt P25106)", "sequence (P25106 whole entry)": "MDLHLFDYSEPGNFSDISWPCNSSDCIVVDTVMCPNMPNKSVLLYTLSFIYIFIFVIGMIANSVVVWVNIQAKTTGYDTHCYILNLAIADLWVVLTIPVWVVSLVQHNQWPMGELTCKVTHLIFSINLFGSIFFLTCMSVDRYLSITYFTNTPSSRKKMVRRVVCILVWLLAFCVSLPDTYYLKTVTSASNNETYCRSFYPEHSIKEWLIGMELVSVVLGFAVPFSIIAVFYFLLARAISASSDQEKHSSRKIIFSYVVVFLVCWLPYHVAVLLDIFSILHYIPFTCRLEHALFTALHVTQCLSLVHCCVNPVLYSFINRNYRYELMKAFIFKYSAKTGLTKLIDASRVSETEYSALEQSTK", "assay": "Tango CXCR7-bla U2OS beta-arrestin recruitment assay (beta-lactamase reporter, FRET), antagonism of CXCL12/SDF1-α;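 further: compounds preincubated 15 min before CXCL12 addition, then 22 h at 37 °C, FRET emission ratio read with CCF4-AM substrate after 2 h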", "format": "cell-based", "details": "antagonistic effect on CXCR7, Tango CXCR7-bla U2OS cells, CXCL12/SDF1-α at its EC80"}
{"smiles": "CC(C)(NC(=O)[C@H]1CN(CC2CC2)CC[C@@H]1NC(=O)c1cc(-c2ccc(F)cc2F)on1)c1ccccn1", "note": "[Example 4.033]", "values": [{"measurement": "IC50", "result": 0.3, "unit": "nM"}]}
{"smiles": "CC(NC(=O)[C@H]1CN(C2CCCC2)CC[C@@H]1NC(=O)c1cc(-c2ccc(F)cc2F)on1)c1ccn[nH]1", "note": "(stereo partly drawn) [Example 4.041]", "values": [{"measurement": "IC50", "result": 96, "unit": "nM"}]}
{"smiles": "CCc1noc(CNC(=O)[C@@H]2CN(C3CCCCC3)CC[C@H]2NC(=O)c2cc(-c3ccc(F)cc3F)on2)n1", "note": "(racemic) [Example 1.047, rac-(3R*,4R*)-1-Cyclohexyl-4-{[5-(2,4-difluoro-phenyl)-isoxazole-3-carbonyl]-amino}-piperidine-3-carboxylic acid (3-ethyl-[1,2,4]oxadiazol-5-ylmethyl)-amide]", "values": [{"measurement": "IC50", "result": 127, "unit": "nM"}]}
{"smiles": "CCN1CC[C@H](NC(=O)c2nnc(-c3ccc(F)cc3F)s2)[C@@H](C(=O)NC2(c3ncccn3)CC2)C1", "note": "[Example 2.107]", "values": [{"measurement": "IC50", "result": 114, "unit": "nM"}]}
{"smiles": "COCC(C)(C)NC(=O)[C@@H]1CN(CC2CC2)CC[C@H]1NC(=O)c1cc(-c2ccc(F)cc2F)no1", "note": "(racemic) [Example 1.151, rac-(3R*,4R*)-1-Cyclopropylmethyl-4-{[3-(2,4-difluoro-phenyl)-isoxazole-5-carbonyl]-amino}-piperidine-3-carboxylic acid (2-methoxy-1,1-dimethyl-ethyl)-amide]", "values": [{"measurement": "IC50", "result": 554, "unit": "nM"}]}
{"smiles": "CN(C)C(=O)[C@@H]1CN(C2CCCC23CC3)CC[C@H]1NC(=O)c1cc(-c2ccc(F)cc2F)on1", "note": "(stereo partly drawn) [Example 2.047]", "values": [{"measurement": "IC50", "result": 145, "unit": "nM"}]}
{"smiles": "O=C(N[C@H]1CCN(C2CCCCC2)C[C@@H]1C(=O)NC1(c2ccc(F)cn2)CC1)c1cc(-c2ccc(F)cc2F)on1", "note": "[Example 4.004]", "values": [{"measurement": "IC50", "result": 319, "unit": "nM"}]}
{"smiles": "CN(C)C(=O)[C@@H]1CN(Cc2ccn(C)c2)CC[C@H]1NC(=O)c1cc(-c2ccc(F)cc2F)on1", "note": "[Example 2.085]", "values": [{"measurement": "IC50", "result": 179, "unit": "nM"}]}
{"smiles": "O=C(N[C@H]1CCN(CC2CC2)C[C@@H]1C(=O)NC1(c2ncccn2)CC1)c1noc(-c2ccc(F)cc2)c1F", "note": "[Example 7.001, (3S,4S)-1-Cyclopropylmethyl-4-{[4-fluoro-5-(4-fluoro-phenyl)-isoxazole-3-carbonyl]-amino}-piperidine-3-carboxylic Acid (1-pyrimidin-2-yl-cyclopropyl)-amide]", "values": [{"measurement": "IC50", "result": 32, "unit": "nM"}]}
{"smiles": "CC(C)(C)NC(=O)[C@@H]1CN(C2CCCCC2)CC[C@H]1NC(=O)c1cc(-c2ccc(F)cc2F)on1", "note": "[Example 4.015]", "values": [{"measurement": "IC50", "result": 783, "unit": "nM"}]}
{"smiles": "CN(C)C(=O)[C@@H]1CN(C2CCCCC2)CC[C@H]1NC(=O)c1cc(-c2ccc(F)cc2F)no1", "note": "(racemic) [Example 1.102, rac-(3R*,4R*)-1-Cyclohexyl-4-{[3-(2,4-difluoro-phenyl)-isoxazole-5-carbonyl]-amino}-piperidine-3-carboxylic acid dimethylamide]", "values": [{"measurement": "IC50", "result": 111, "unit": "nM"}]}
{"smiles": "C[C@@H]1CCC[C@H]1N1CC[C@@H](NC(=O)c2cc(-c3c(F)cc(F)cc3F)on2)[C@H](C(=O)N[C@H](C)c2cnccn2)C1", "note": "(relative stereo) [Example 1.132, (3R*,4R*)-1-((1RS,2RS)-2-Methyl-cyclopentyl)-4-{[5-(2,4,6-trifluoro-phenyl)-isoxazole-3-carbonyl]-amino}-piperidine-3-carboxylic acid ((R)-1-pyrazin-2-yl-ethyl)-amide]", "values": [{"measurement": "IC50", "result": 410, "unit": "nM"}]}
{"smiles": "O=C(N[C@@H]1CCN([C@@H]2CCCC[C@H]2O)C[C@H]1C(=O)NC1(c2ncccn2)CC1)c1cc(-c2ccc(F)cc2F)on1", "note": "[Example 2.06]", "values": [{"measurement": "IC50", "result": 4, "unit": "nM"}]}
{"smiles": "CC(NC(=O)[C@@H]1CN(CC2CC2)CC[C@H]1NC(=O)c1cc(-c2ccc(F)cc2F)on1)c1cccc[n+]1[O-]", "note": "(stereo partly drawn) [Example 2.011]", "values": [{"measurement": "IC50", "result": 114, "unit": "nM"}]}
{"smiles": "O=C(N[C@@H]1CCN(C2CCCCC2)C[C@H]1C(=O)N1CCC(c2ccccc2)C1)c1cc(-c2ccc(F)cc2F)on1", "note": "(stereo partly drawn) [Example 1.07]", "values": [{"measurement": "IC50", "result": 559, "unit": "nM"}]}
{"smiles": "O=C(N[C@@H]1CCN(CC2CC2)C[C@H]1C(=O)NC1(c2ncccn2)CC1)c1cc(C2CC2)on1", "note": "(single isomer, unassigned) [Reference Compound 1b, (3R,4R)-4-[(5-Cyclopropyl-isoxazole-3-carbonyl)-amino]-1-cyclopropylmethyl-piperidine-3-carboxylic acid (1-pyrimidin-2-yl-cyclopropyl)-amide or (3S,4S)-4-[(5-cyclopropyl-isoxazole-3-carbonyl)-amino]-1-cyclopropylmethyl-piperidine-3-carboxylic Acid (1-pyrimidin-2-yl-cyclopropyl)-amide, reference compound]", "values": [{"measurement": "IC50", "setting": "geometric mean", "result": "> 10000", "unit": "nM"}]}
{"smiles": "CC(C)CCN1CC[C@@H](NC(=O)c2cc(-c3ccc(F)cc3F)on2)[C@H](C(=O)N(C)C)C1", "note": "[Example 2.021]", "values": [{"measurement": "IC50", "result": 293, "unit": "nM"}]}
{"smiles": "CC(C)(C)N1CC[C@H](NC(=O)c2cc(-c3ccc(F)cc3F)on2)[C@@H](C(=O)NC2(c3ncccn3)CC2)C1", "note": "[Example 4.101b]", "values": [{"measurement": "IC50", "result": 712, "unit": "nM"}]}
{"smiles": "COCC(C)(C)NC(=O)[C@@H]1CN(C2CCCCC2)CC[C@H]1NC(=O)c1cc(-c2c(F)cc(F)cc2F)on1", "note": "(racemic) [Example 1.111, rac-(3R*,4R*)-1-Cyclohexyl-4-{[5-(2,4,6-trifluoro-phenyl)-isoxazole-3-carbonyl]-amino}-piperidine-3-carboxylic acid (2-methoxy-1,1-dimethyl-ethyl)-amide]", "values": [{"measurement": "IC50", "result": 332, "unit": "nM"}]}
{"smiles": "CN(C)C(=O)[C@@H]1CN(C2CCCC(C)(C)C2)CC[C@H]1NC(=O)c1cc(-c2ccc(F)cc2F)on1", "note": "(stereo partly drawn) [Example 2.024]", "values": [{"measurement": "IC50", "result": 101, "unit": "nM"}]}
{"smiles": "CCN1CC[C@@H](NC(=O)c2cc(-c3ccc(F)cc3F)on2)[C@H](C(=O)NC(C)c2ccccn2)C1", "note": "(stereo partly drawn) [Example 2.008]", "values": [{"measurement": "IC50", "result": 405, "unit": "nM"}]}
{"smiles": "Cc1cccc([C@H](C)NC(=O)[C@@H]2CN(C3CCCCC3)CC[C@H]2NC(=O)c2cc(-c3ccc(F)cc3F)on2)n1", "note": "(single isomer, unassigned) [Example 1.188.d, (3R*,4R*)-1-Cyclohexyl-4-{[5-(2,4-difluoro-phenyl)-isoxazole-3-carbonyl]-amino}-piperidine-3-carboxylic acid [(S)-1-(6-methyl-pyridin-2-yl)-ethyl]-amide]", "values": [{"measurement": "IC50", "result": 362, "unit": "nM"}]}
{"smiles": "C[C@@H]1CCC[C@H]1N1CC[C@@H](NC(=O)c2cc(-c3c(F)cc(F)cc3F)on2)[C@H](C(=O)N[C@H](C)c2ccccn2)C1", "note": "(relative stereo) [Example 1.124, (3R*,4R*)-1-((1RS,2RS)-2-Methyl-cyclopentyl)-4-{[5-(2,4,6-trifluoro-phenyl)-isoxazole-3-carbonyl]-amino}-piperidine-3-carboxylic acid ((R)-1-pyridin-2-yl-ethyl)-amide]", "values": [{"measurement": "IC50", "result": 16, "unit": "nM"}]}
{"smiles": "CC(C)(NC(=O)[C@H]1CN(C2CCC2)CC[C@@H]1NC(=O)c1cc(-c2ccc(F)cc2F)on1)c1ncccn1", "note": "[Example 4.083]", "values": [{"measurement": "IC50", "result": 11, "unit": "nM"}]}
{"smiles": "C[C@@H](NC(=O)[C@@H]1CN(C2CCCCC2)CC[C@H]1NC(=O)c1cc(-c2ccc(F)cc2F)no1)C1CCC1", "note": "[Example 1.14]", "values": [{"measurement": "IC50", "result": 358, "unit": "nM"}]}
{"smiles": "O=C(N[C@@H]1CCN(C2CCCCC2)C[C@H]1C(=O)NC1(c2ccccn2)CC1)c1cc(-c2c(F)cc(F)cc2F)on1", "note": "(racemic) [Example 1.169, rac-(3R*,4R*)-1-Cyclohexyl-4-{[5-(2,4,6-trifluoro-phenyl)-isoxazole-3-carbonyl]-amino}-piperidine-3-carboxylic acid (1-pyridin-2-yl-cyclopropyl)-amide]", "values": [{"measurement": "IC50", "result": 5, "unit": "nM"}]}
{"smiles": "COc1ccccc1C1(NC(=O)[C@@H]2CN(CC3CC3)CC[C@H]2NC(=O)c2cc(-c3ccc(F)cc3F)on2)CC1", "note": "(racemic) [Example 1.198, rac-(3R*,4R*)-1-Cyclopropylmethyl-4-{[5-(2,4-difluoro-phenyl)-isoxazole-3-carbonyl]-amino}-piperidine-3-carboxylic acid [1-(2-methoxy-phenyl)-cyclopropyl]-amide]", "values": [{"measurement": "IC50", "result": 52, "unit": "nM"}]}
